Reference: US11129867B2, “Method of treating cancer cells” (priority 2017, dated 2021)
Where a SMILES comes first, the peptide text is derived from it. The star is where a group is joined. X1 = CN(C)c1ccc2c(-c3ccc(C(=O)*)cc3C(=O)[O-])c3ccc(=[N+](C)C)cc-3oc2c1

Assays:
[1] = system: phospho-γH2Ax; assay: Immunofluorescence staining of phospho-γH2Ax (DNA damage); type: cell-based, human
Procedure: Representative images showing DAPI-labelled nucleus (shown in blue) co-stained with phospho-γH2Ax (green). Ca922 cells were treated with 25 μM TMR-GBP for 12 or 24 hours followed by immunofluorescence staining. Foci in the nucleus indicated damaged DNA. Scale bar indicates 10 μm.
At least 20 cells were counted in each category. Bars indicate standard deviations from three independent experiments.
Immunofluorescence Staining
Cells grown on coverslips were washed with 1×PBS and fixed by PTEMF buffer (20 mM PIPES pH 6.8, 0.2% Triton X-100, 10 mM EGTA, 1 mM MgCl2, and 4% formaldehyde) or 4% paraformaldehyde for 10 minutes at room temperature. Then, fixation buffer was replaced with 1×PBST and the cells were washed with 1×PBST for another 10 minutes at room temperature. Coverslips were washed with 1×PBST twice gently and incubated with primary antibodies at room temperature for 1 hour. Next, washed with PBST for three times (2, 2, 5 minutes). Afterwards, coverslips were cultured in Alex Fluor-conjugated secondary antibodies and DAPI at room temperature for 30 minutes, washed three times (2, 2, 5 minutes), rinsed with ddH2O and mounted with mounting medium. Antibodies concentration used in this analysis is 1:1000 dilution. Images were acquired with specific fluorescence wavelength by Leica DMI6000 inverted microscope equipped with HCX PL FL 100λ/NA1.40 objective and EMCCD camera. All images were analyzed by MetaMorph software.

[2] = system: H2170; assay: WST-8 cell viability assay, H2170; type: cell-based; conditions: H2170 (lung cancer), different concentrations, 48 hours, FIG. 5
Procedure: Human oral squamous cell carcinoma (OSCC) cell lines, Ca922, OSC20, OECM-1, OC3, CGHNC9, HSC3, plus A549, MDA-MB-231, MCF7, Huh7, HeLa-Kyoto, Detroit 562, H520, H2170, and 293T cells were used in this study. Ca922, CGHNC9, MDA-MB-231, MCF7, Huh7, HeLa-Kyoto, Detroit 562, and 293T cells were all cultured in high-glucose Dulbecco's Modified Eagle Medium (DMEM). OSC20 and HSC3 cells were cultured in Dulbecco's Modified of Eagle's Medium/Ham's F-12 50/50 Mix (1:1). OECM-1, A549, H520, and H2170 cells were grown in RPMI-1640 medium. All culture media were supplemented with 10% fetal bovine serum (FBS) and 1% penicillin-streptomycin. OC3 cells were cultured in 1:1 DMEM/KSFM (keratinocyte serum-free medium) with supplied supplement of Bovine pituitary extract (BPE) and epidermal growth factor (EGF) followed by instruction. All the cells in this study were maintained at 37° C. in humidified atmosphere containing 5% CO2.
WST-8 [2-(2-methoxy-4-nitrophenyl)-3-(4-nitrophenyl)-5-(2,4-disulfophenyl)-2H-tetrazolium, monosodium salt] cell viability assay
Cells were seeded into 96 well plate and incubated at 37° C. overnight. Endpoint measures of TMR-GBP or drugs were performed by water soluble tetrazolium salt (WST-8)-based colorimetric assay in triplicate which measures the metabolic conversion of WST-8 into formazan by mitochondrial dehydrogenases present in viable cells. The amount of formazan produced is proportional to the number of live cells and is expressed as cellular viability. When time was up, media were removed and supplemented with WST-8 cell viability reagent-contained cell culture medium (1:10) and incubated at 37° C. for 2 hours. Besides, three wells with WST-8-dissolved medium only (without cells) were reserved as a background control. Cell viability was measured at the absorbance of 450/655 nm wavelength by ELISA reader.

[3] = system: OECM-1; assay: Time-lapse live cell imaging, OECM-1; type: cell-based, human; conditions: OECM-1, unbound TMR-GBP removed, imaged at 15 minutes interval for 16 hours, FIG. 4
Procedure: Time-Lapse Live Cell Imaging
In order to monitor cell morphology and the stability of TMR-GBP, cells were incubated in 35 mm dish or 4 well dish at 37° C. overnight. Replaced the culture medium with CO2-independent medium with supplement of 10% fetal bovine serum (FBS) and 1% penicillin-streptomycin, cells were treated with reagent (TMR, GBP, TMR-GBP) for the time according to the experiment and subjected to time-lapse live cell imaging. Cells were maintained on the microscope stage incubator at 37° C. Multiple-positional time-lapse imaging was performed using an automated Leica DMI6000 inverted microscope equipped with an HCX PL FL 20λ/NA0.4 objective and Andor Luca R EMCCD camera. Images of cells were taken at different interval time and analyzed by MetaMorph software.

## CN(C)c1ccc2c(-c3ccc(C(=O)N[C@@H](CC(N)=O)C(=O)N[C@@H](Cc4ccc(O)cc4)C(=O)N[C@@H](CCCNC(=N)N)C(=O)N[C@@H](Cc4c[nH]c5ccccc45)C(=O)N[C@@H](CCCNC(=N)N)C(=O)N[C@@H](CS)C(=O)N[C@@H](CCCCN)C(=O)N[C@@H](CC(N)=O)C(=O)N[C@@H](CCC(N)=O)C(=O)N[C@@H](CC(N)=O)C(=O)O)cc3C(=O)[O-])c3ccc(=[N+](C)C)cc-3oc2c1 [TMR-GBP] (X1-NYRWRCKNQN-OH; N-terminus and C-terminus assumed)
[1]; Ca922, 25 μM TMR-GBP, 12 or 24 hours, FIG. 10A
  phospho-γH2Ax foci in the nucleus (DNA damage): many foci were observed accumulating in the nucleus
[1]; Ca922, 25 μM, over control cells or cells co-treated with TMR-GBP and NAC, FIG. 10B
  increase of nuclear γH2Ax intensity: 4 folds
[1]; Ca922, co-treated with TMR-GBP and NAC, FIG. 10A
  phospho-γH2Ax signal, co-treated with NAC: hardly detected any phospho-γH2Ax signal
[2]
  cytotoxicity (cell viability): could induce cytotoxicity
[3]
  cell death by time-lapse microscopy: most cells die in 8 hours
